Source: patent US20040176321A1, “Compositions of benzoquinolizine carboxylic acid antibiotic drugs” (priority 2002, published 2004)

Columns and labels:
[1] = system: Wistar rats; settings: rat, in vivo, iv
Method: Wistar rats of body weight range 90-100 gm were treated with i.v. administered above test compositions in doses specified in the table below for a period of 7 days to 28 days. The test doses were administered by injecting 0.5 ml-1.0 ml of test compositions via tail vein of each rat with the help of graduated 1 ml disposable syringe fitted with 26½ G needle. Each repeat dose was administered in 5 male and 5 female rats. Animals were monitored for the induction of phlebitis or its progression to complete venous blockade.

[2] = Solubility study with β-cyclodextrin and hydroxypropyl β-cyclodextrin; format: physicochemical; settings: ca. 24 hours, 27° C.
Method: The flasks were kept ca. 24 hours on a mechanical shaker, maintained at 27° C. and 140 rpm. The solutions were filtered through 0.2 micron syringe filter. The filtrates were diluted appropriately and injected on HPLC. The amounts dissolved were determined by comparing the sample peak area with peak area of standard solution.

[3] = pKa value; format: physicochemical
[4] = Solubility at ambient temperature (in water); format: physicochemical

## C[C@H]1CCc2c(N3CCC(O)CC3)c(F)cc3c(=O)c(C(=O)O)cn1c23.N=C(N)NCCC[C@H](N)C(=O)O [Substance B, S-(−)-9-fluoro-6,7-dihydro-8-(4-hydroxypiperidin-1-yl)-5-methyl-1-oxo-1H,5H-benzo[I,j]quinolizine-2-carboxylic acid arginine salt]
[1]
  venous tolerability: superior venous tolerability

## CC1CCc2c(N3CCC(O)CC3)c(F)cc3c(=O)c(C(=O)O)cn1c23 (racemic) [Substance C, RS-(±)-9-fluoro-6,7-dihydro-8-(4-hydroxypiperidin-1-yl)-5-methyl-1-oxo-1H,5H-benzo[I,j]quinolizine-2-carboxylic acid]
[2]; HP-β-CD 0 mg/ml
  amount dissolved with HP-β-CD: 0.03 mg/mL
[2]; HP-β-CD 2 mg/ml
  amount dissolved with HP-β-CD: 0.05 mg/mL
[2]; HP-β-CD 5 mg/ml
  amount dissolved with HP-β-CD: 0.11 mg/mL
[2]; HP-β-CD 10 mg/ml
  amount dissolved with HP-β-CD: 0.31 mg/mL
[2]; HP-β-CD 50 mg/ml
  amount dissolved with HP-β-CD: 1.03 mg/mL
[2]; β-CD 0 mg/ml
  amount dissolved with β-CD: 0.03 mg/mL
[2]; β-CD 5 mg/ml
  amount dissolved with β-CD: 0.22 mg/mL
[2]; β-CD 10 mg/ml
  amount dissolved with β-CD: 0.40 mg/mL

## C[C@H]1CCc2c(N3CCC(O)CC3)c(F)cc3c(=O)c(C(=O)O)cn1c23 [Substance A, S-(−)-9-fluoro-6,7-dihydro-8-(4-hydroxypiperidin-1-yl)-5-methyl-1-oxo-1H,5H-benzo[I,j]quinolizine-2-carboxylic acid]
[3]
  pKa: 6.8
[4]
  solubility: < 1500 µg/mL
[2]; HP-β-CD 0 mg/ml
  amount dissolved with HP-β-CD: 0.04 mg/mL
[2]; HP-β-CD 2 mg/ml
  amount dissolved with HP-β-CD: 0.21 mg/mL
[2]; HP-β-CD 5 mg/ml
  amount dissolved with HP-β-CD: 0.28 mg/mL
[2]; HP-β-CD 10 mg/ml
  amount dissolved with HP-β-CD: 0.55 mg/mL
[2]; HP-β-CD 50 mg/ml
  amount dissolved with HP-β-CD: 2.67 mg/mL
[2]; β-CD 0 mg/ml
  amount dissolved with β-CD: 0.04 mg/mL
[2]; β-CD 2 mg/ml
  amount dissolved with β-CD: 0.12 mg/mL
[2]; β-CD 5 mg/ml
  amount dissolved with β-CD: 0.27 mg/mL
[2]; β-CD 10 mg/ml
  amount dissolved with β-CD: 0.53 mg/mL

## C[C@@H]1CCc2c(N3CCC(O)CC3)c(F)cc3c(=O)c(C(=O)O)cn1c23 [Substance D, R-(+)-9-fluoro-6,7-dihydro-8-(4-hydroxypiperidin-1-yl)-5-methyl-1-oxo-1H,5H-benzo[I,j]quinolizine-2-carboxylic acid]
[2]; HP-β-CD 0 mg/ml
  amount dissolved with HP-β-CD: 0.15 mg/mL
[2]; HP-β-CD 2 mg/ml
  amount dissolved with HP-β-CD: 0.37 mg/mL
[2]; HP-β-CD 5 mg/ml
  amount dissolved with HP-β-CD: 0.50 mg/mL
[2]; HP-β-CD 10 mg/ml
  amount dissolved with HP-β-CD: 1.08 mg/mL
[2]; HP-β-CD 50 mg/ml
  amount dissolved with HP-β-CD: 5.01 mg/mL
[2]; β-CD 0 mg/ml
  amount dissolved with β-CD: 0.15 mg/mL
[2]; β-CD 5 mg/ml
  amount dissolved with β-CD: 0.71 mg/mL
